Assay results published in ChEMBL document CHEMBL1201862, “PubChem BioAssay data set” (2004).
Activity calls are given as the source filed them. For most assays here, no stated cut-off is given here; in the data, actives have a measured EC50 and inactives only a lower limit.

Tests used:
[1] = molecular target: T1, Rac GTPase-activating protein 1 (Homo sapiens, UniProt Q9H0H5); assay: MgcRacGAP GTPase-activating activity inhibitors, confirmation, biochemical, ADP Hunter fluorescence, primary and confirmatory (AID 624330); format: functional
T1 sequence (Q9H0H5 whole entry): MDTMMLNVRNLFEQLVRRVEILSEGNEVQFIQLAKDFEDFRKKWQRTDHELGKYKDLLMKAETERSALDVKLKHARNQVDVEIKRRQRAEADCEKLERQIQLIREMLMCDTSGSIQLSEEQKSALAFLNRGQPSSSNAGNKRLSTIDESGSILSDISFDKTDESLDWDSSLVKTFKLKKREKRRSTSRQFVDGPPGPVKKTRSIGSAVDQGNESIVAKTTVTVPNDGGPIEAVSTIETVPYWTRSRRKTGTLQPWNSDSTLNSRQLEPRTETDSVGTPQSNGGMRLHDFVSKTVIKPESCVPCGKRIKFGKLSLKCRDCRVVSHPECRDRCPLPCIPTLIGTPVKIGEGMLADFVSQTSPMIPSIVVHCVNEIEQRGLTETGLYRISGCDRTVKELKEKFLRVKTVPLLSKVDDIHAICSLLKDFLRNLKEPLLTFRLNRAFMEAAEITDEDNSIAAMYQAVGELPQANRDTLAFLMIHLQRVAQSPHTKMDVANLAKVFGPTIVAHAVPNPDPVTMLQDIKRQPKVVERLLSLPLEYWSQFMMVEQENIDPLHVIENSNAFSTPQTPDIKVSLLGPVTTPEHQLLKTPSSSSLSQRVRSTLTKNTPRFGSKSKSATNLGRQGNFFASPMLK

[2] = test system: Streptococcus; assay: Group A Streptococcus viability loss, dose response, counter-screen for streptokinase expression inhibitor project, luminescence, BacTiterGlo (AID 1915); format: functional, organism-based;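 further: potency for reduction of bacterial viability or growth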
[3] = inhibitors of intracellular T. cruzi replication, confirmation, NIH3T3 host cells, beta-gal luminescence (AID 2044); format: functional, cell-based;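 further: intracellular parasites grown in NIH/3T3 mouse fibroblasts as host cells; luminescent beta-galactosidase reporter signal from transgenic T. cruzi replicating inside host cells; inhibitors lower the luminescence signal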
[4] = molecular target: T2, Streptokinase A (Streptococcus pyogenes serotype M1, UniProt P10520); assay: S. pyogenes streptokinase expression inhibitors, potency, dose response, plasminogen activation absorbance, OD405 (AID 1914); format: functional, Streptococcus pyogenes M1 GAS;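 further: secreted streptokinase activity via plasminogen activation per viability signal from cell pellet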
T2 sequence (P10520 whole entry): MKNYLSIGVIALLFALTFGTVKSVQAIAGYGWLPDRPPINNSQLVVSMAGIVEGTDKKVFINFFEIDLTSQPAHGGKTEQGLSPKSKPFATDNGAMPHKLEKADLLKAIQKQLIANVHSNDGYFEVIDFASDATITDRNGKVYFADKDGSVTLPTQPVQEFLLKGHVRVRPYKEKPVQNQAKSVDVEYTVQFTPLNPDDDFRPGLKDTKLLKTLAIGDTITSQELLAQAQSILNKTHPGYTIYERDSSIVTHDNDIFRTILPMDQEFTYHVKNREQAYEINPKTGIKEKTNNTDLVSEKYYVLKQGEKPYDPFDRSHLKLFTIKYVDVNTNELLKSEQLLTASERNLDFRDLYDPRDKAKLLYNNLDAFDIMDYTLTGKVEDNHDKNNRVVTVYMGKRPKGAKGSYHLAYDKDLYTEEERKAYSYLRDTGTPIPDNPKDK

[5] = cytotoxicity toward NIH3T3 fibroblasts, dose response, counter-screen, cell-based, ATP luminescence, mouse fibroblasts (AID 2010); format: functional;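 further: cells exposed to compound for about 90 hours before reading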
[6] = test system: Streptococcus sp. 'group A'; assay: growth inhibition of control SK(-) GAS strain, dose response, counter-screen for streptokinase expression inhibitor project, luminescence, kanamycin, BacTiterGlo, confirmation (AID 1900); format: functional, organism-based
[7] = Luminescence Cell-Based Dose Retest to Confirm Inhibitors of Cancer Stem Cells. [Related pubchem assays (depositor defined):AID2717, AID2721]; format: functional; conditions: Homo sapiens
[8] = molecular target: T3, Protein RecA (Mycobacterium tuberculosis, UniProt P9WHJ3); assay: Fluorescence Cell-Free Homogeneous Dose Retest to Identify Inhibitors of RecA-Intein Splicing Activity. [Related pubchem assays (depositor defined):AID2097, AID2223, AID489010, AID492950]; format: functional
T3 sequence (P9WHJ3 whole entry): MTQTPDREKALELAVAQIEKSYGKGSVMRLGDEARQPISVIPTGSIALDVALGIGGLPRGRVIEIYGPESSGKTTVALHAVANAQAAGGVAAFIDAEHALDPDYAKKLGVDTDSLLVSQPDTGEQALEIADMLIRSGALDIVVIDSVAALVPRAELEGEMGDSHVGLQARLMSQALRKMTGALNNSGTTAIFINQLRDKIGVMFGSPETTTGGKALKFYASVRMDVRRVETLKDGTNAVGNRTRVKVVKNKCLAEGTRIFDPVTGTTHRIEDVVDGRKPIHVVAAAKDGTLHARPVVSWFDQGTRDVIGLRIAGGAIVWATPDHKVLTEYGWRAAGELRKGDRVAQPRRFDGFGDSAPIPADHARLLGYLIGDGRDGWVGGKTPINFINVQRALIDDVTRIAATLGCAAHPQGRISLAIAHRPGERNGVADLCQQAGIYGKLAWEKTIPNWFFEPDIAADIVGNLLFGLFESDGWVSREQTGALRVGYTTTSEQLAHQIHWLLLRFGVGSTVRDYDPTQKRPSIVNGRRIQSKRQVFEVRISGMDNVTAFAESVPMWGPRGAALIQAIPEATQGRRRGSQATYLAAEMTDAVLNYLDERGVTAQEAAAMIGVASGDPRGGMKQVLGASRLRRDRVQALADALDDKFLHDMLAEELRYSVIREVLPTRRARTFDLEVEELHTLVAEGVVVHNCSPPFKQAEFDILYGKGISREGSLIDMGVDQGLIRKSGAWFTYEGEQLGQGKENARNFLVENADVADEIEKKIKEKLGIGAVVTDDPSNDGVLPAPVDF

[9] = molecular target: T4, Replicative DNA helicase DnaB (Mycobacterium tuberculosis, UniProt P9WMR3); assay: DnaB intein splicing inhibitors, dose response, biochemical, cell-free fluorescence (AID 449749); format: functional
T4 sequence (P9WMR3 whole entry): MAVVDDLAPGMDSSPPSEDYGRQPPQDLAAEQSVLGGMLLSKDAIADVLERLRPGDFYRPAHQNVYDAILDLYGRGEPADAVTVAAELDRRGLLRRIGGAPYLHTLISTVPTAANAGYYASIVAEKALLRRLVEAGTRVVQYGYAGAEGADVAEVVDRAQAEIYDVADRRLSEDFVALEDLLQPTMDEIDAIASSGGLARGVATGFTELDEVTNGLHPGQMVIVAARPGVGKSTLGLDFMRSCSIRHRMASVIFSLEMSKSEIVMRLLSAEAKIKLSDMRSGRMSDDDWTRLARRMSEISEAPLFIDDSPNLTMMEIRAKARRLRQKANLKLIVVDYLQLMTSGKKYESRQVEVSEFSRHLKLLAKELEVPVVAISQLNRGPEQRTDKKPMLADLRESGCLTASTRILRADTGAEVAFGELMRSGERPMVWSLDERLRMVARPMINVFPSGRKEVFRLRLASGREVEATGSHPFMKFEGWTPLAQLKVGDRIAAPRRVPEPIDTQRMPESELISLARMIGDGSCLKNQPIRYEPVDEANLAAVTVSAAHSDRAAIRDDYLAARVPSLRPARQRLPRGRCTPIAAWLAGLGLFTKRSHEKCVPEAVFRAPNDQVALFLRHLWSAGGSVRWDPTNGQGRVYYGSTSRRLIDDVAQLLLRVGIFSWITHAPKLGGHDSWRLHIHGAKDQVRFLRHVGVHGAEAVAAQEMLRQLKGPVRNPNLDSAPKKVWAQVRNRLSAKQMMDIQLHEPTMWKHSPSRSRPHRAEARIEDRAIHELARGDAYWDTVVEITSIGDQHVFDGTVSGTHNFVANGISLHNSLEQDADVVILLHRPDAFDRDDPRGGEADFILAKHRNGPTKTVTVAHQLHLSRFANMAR

[10] = C. albicans growth with fluconazole, confirmation, fluorescence, retest (AID 2467); format: functional, cell-based
[11] = NIH-3T3 fibroblast cytotoxicity, dose response, cytotoxicity control, cell-based, fluorescence, Alamar Blue, secondary assay (AID 2327); format: functional;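 further: NIH-3T3 mouse fibroblasts cultured with fluconazole at 8 µg/mL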
[12] = test system: INS1; assay: beta cell apoptosis inhibitors, cytokine rescue, dose response, luminescence, retest (AID 449756); format: functional, cell-based; conditions: Rattus norvegicus;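 further: cell death triggered by IL-1 beta plus TNF-alpha plus IFN-gamma mixture; protective hits raise ATP signal compared with cytokine alone wells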

Cc1c(Cl)cccc1Nc1nnc(S)s1
IC50 [1]: 108 µM (active)

O=C(N/N=C/c1ccc(O)c(O)c1)c1ccc(-n2cnnn2)cc1
IC50 [1]: 18.6 µM (active)

COc1cc(/C=N/Nc2nc(Nc3ccccc3)nc(-n3nc(C)cc3C)n2)cc(OC)c1OC
EC50 [2]: 13.8 µM (active)
EC50 [3]: 0.737 µM (active)
EC50 [4]: > 150 µM (not active)
EC50 [5]: 7.23 µM (active)
EC50 [6]: 5.1 µM (active)
AC50 [7]: 3.63 µM (active)

CCOC(=O)C1CCCN(C(S)=Nc2ccc(Nc3ccccc3)cc2)C1 (stereo unspecified)
IC50 [1]: 51 µM (active)

CCc1n[nH]c2c1C(c1ccc(C)o1)C(C#N)=C(N)O2 (stereo unspecified)
EC50 [8]: 4.31 µM (active)
AC50 [9]: 37.3 µM (active)

O=C1NC[C@@H](Cc2cccc3ccccc23)N(CCCCC2CCCCC2)C1=O
EC50 [2]: 7.07 µM (active)
EC50 [6]: 3.38 µM (active)
AC50 [7]: 3.84 µM (active)

COc1ccccc1CN1CCN(Cc2cc(OC)c(OC)cc2OC)CC1
IC50 [1]: 73.5 µM (active)

CCn1nnnc1NC(=O)c1cc(Cl)c(OC)c(Cl)c1
EC50 [10]: 2.51 µM (active)
EC50 [11]: > 160 µM (inactive)

O=C(O)/C=C/C(=O)Nc1ccc(SC(F)(F)C(F)(F)C(F)(F)F)cc1
EC50 [8]: 2.59 µM (active)
AC50 [9]: 11.7 µM (active)

CCN(CC(=O)Nc1ccc(S(=O)(=O)N2CCCC2)cc1)CC(=O)Nc1cccc(OC)c1
IC50 [1]: 35.5 µM (active)

COc1ccc(COC(=O)N/N=C(\C)CC(=O)Nc2ccc(Cl)cn2)cc1
EC50 [8]: 4.27 µM (active)
AC50 [9]: 5.46 µM (active)

Cc1ccccc1-c1ccnc2[nH]n(-c3ccccc3)c(=O)c12
EC50 [10]: > 38 µM (not active)
EC50 [11]: > 160 µM (inactive)

CCOc1cc(/C=C/c2cccc[n+]2C)ccc1O
IC50 [1]: 22.9 µM (active)

CC(C)C(=O)NC(c1ccccc1)c1cc([N+](=O)[O-])c2cccnc2c1O (stereo unspecified)
EC50 [2]: 2.98 µM (active)
EC50 [4]: > 150 µM (not active)
EC50 [6]: 2.12 µM (active)
AC50 [7]: 1.27 µM (active)
AC50 [12]: 6.59 µM (active)

O=c1c2cc(Br)ccc2nc(-c2ccccc2)n1O
EC50 [10]: 1.99 µM (active)
EC50 [11]: 70.4 µM (active)

CCN=C(S)N1N=C2c3ccccc3CCC2C1c1ccc(F)cc1 (stereo unspecified)
AC50 [7]: 1.46 µM (active)

COC(CN(C(=O)CCl)C(C(=O)NC1CCCC(C)C1C)c1ccc(C)cc1)OC (stereo unspecified)
EC50 [8]: 2.11 µM (active)
AC50 [9]: 24.6 µM (active)

COc1ccc(N2CCN(C(=O)CCCn3nnnc3CN3CCOCC3)C(C)C2)cc1 (stereo unspecified)
IC50 [1]: 150 µM (active)

CCc1c(C)sc2nc(C(C)C)nc(SCC(=O)N3CCc4ccccc4C3)c12
EC50 [2]: 15.1 µM (active)
EC50 [4]: 2.38 µM (active)
EC50 [6]: 9.77 µM (active)
AC50 [7]: 4.63 µM (active)
AC50 [12]: 1.94 µM (active)

Oc1ccc(O)c2c1C1c3ccccc3C2c2ccccc21
EC50 [8]: 2.08 µM (active)
AC50 [9]: 34.5 µM (active)
EC50 [10]: 2.94 µM (active)
EC50 [11]: 25 µM (active)

CC(C)NC(=S)NC(c1ccccc1)(c1ccccc1)c1ccccc1
EC50 [4]: 11.7 µM (active)
EC50 [8]: 136 µM (inconclusive)
AC50 [9]: 3.07 µM (active)

O=C1NN(c2ccc(F)cc2)C(=O)/C1=C/c1cccs1
EC50 [10]: > 38 µM (not active)
EC50 [11]: > 160 µM (inactive)

CCOc1cc(NC(=O)c2ccccc2C(=O)O)c(OCC)cc1NC(=O)c1ccccc1F
EC50 [3]: 5.83 µM (active)
EC50 [5]: > 60 µM (not active)
IC50 [1]: 54.8 µM (active)

CC1CCCN(C(=O)COc2ccc(NC(=O)c3cccs3)cc2)C1 (stereo unspecified)
EC50 [8]: > 380 µM (inactive)
AC50 [9]: > 380 µM (inactive)

COc1ccc(-c2csc(N(CC3CCCO3)C(=O)c3ccco3)n2)cc1 (stereo unspecified)
EC50 [10]: > 38 µM (not active)
EC50 [11]: > 160 µM (inactive)

COc1cc(/C=C/C(=O)OCC(=O)Nc2cccc(F)c2)ccc1O
IC50 [1]: 41.6 µM (active)

CCCC(O)(c1ccc(Cl)cc1)C(CN1CCOCC1)c1ccc(Cl)cc1 (stereo unspecified)
AC50 [7]: 6 µM (active)

CCC(C)n1c(-c2cccs2)nc2nc3ccccc3nc21 (stereo unspecified)
AC50 [7]: 2.73 µM (active)

COc1ccccc1-n1c(=O)c2c3c(sc2n2c(S)nnc12)CCC3
IC50 [1]: 50.3 µM (active)
